Experiments:
OPN protein = assay: OPN production inhibition assay in un-stimulated PBMC cultures, OPN protein; assay type: cell-based; settings: 10 μM
Protocol: (§1) 10 μM of each drug was added to un-stimulated PBMC cultures at time=0 and cells were harvested 1,3, and 6 days later for quantitative OPN RNA and protein production analysis.

OPN RNA = assay: OPN production inhibition assay in un-stimulated PBMC cultures, OPN RNA; assay type: cell-based; settings: 10 μM, harvested 1, 3 and 6 days
Protocol: as §1

[1] = test system: pro- and anti-inflammatory cytokines; assay: Cytokine levels in cell culture supernatants of mononuclear cells; assay type: cell-based; settings: rOPN
Protocol: (§2) We investigated macrophage activation via flow cytometry and levels of pro- and anti-inflammatory cytokines in cell culture supernatants of mononuclear cells. 10 μg/ml recombinant human OPN (rOPN) was added to mononuclear cells cultured for 3 days, with and without fetal bovine serum (FBS) in cell culture medium, and analyzed via flow cytometry. […] An increase in CD14+/CD16+ cells was also observed with cells cultured in serum free medium and rOPN in comparison to control. To observe the effects of OPN neutralizing antibody on macrophage activation, 10 μg of antibody was added to cultures for 3 days. […] We also investigated the levels of pro- and anti-inflammatory cytokines in all cell culture supernatants of each time point. On average, IL-6, IL-1β, TNF-α, IL-10, and IL-12p40 were at least 50-fold higher with rOPN at 24 and 72 hours in all culture conditions in comparison to control.

CD14+/CD16+ cells [2] = assay: Exogenous rOPN on macrophage yield, flow cytometry of PBMC cultures; assay type: cell-based, human; settings: 10 μg/ml rOPN
Protocol: To determine the role of exogenous recombinant human OPN (rOPN) in macrophage activation, 10 μg/ml rOPN(R&D Systems, Inc., Minneapolis, Minn.) was added to non-adherent PBMC cultures grown in complete or in serum free medium for 24 and 72 hours, and analyzed via flow cytometry. […] Shown in the upper right quadrant in FIG. 8 is the percentage of cells that are double positive for CD14 and CD16 surface markers.

CD14+/CD16+ cells [3] = assay: Macrophage activation via flow cytometry, mononuclear cells cultured for 3 days; assay type: cell-based
Protocol: as §2

[4] = 24 and 72 hours, all culture conditions, on average
[5] = any time point and culture condition

CCNCCCCNC[C@@H]1C[C@H]1CNCCCCNCC [SL93, N,N′-(cyclopropane-1,2-diylbis(methylene))bis(N4-ethylbutane-1,4-diamine)]
OPN protein production (OPN protein): Complete inhibition | OPN RNA expression (OPN RNA): inhibited in a time dependant manner

CCNCCCNC/C=C\CNCCCNCC.Cl.Cl.Cl.Cl [SL47, N,N′-bis(3-ethylaminopropyl)-cis-but-2-ene-1,4-diamine tetrahydrochloride]
OPN protein production (OPN protein): Complete inhibition | OPN RNA expression (OPN RNA): inhibited in a time dependant manner

rOPN: exogenous recombinant human OPN (R&D Systems, Inc.)
IL-1β level vs control [1, 4]: at least 50 fold | IL-6 level vs control [1, 4]: at least 50 fold | IL-10 level vs control [1, 4]: at least 50 fold | IL-12p40 level vs control [1, 4]: at least 50 fold | TNF-α level vs control [1, 4]: at least 50 fold | IL-4 level vs control [1, 5]: no significant difference | IL-12p70 level vs control [1, 5]: no significant difference | accumulation of CD14+/CD16+ cells vs control (CD14+/CD16+ cells [2]; complete medium, 24 hours): no significant accumulation | increase in CD14+/CD16+ cells vs control (CD14+/CD16+ cells [2]; complete medium, 72 hours): 11 fold | increase in CD14+/CD16+ cells vs serum free control (CD14+/CD16+ cells [2]; serum free, 72 hours): 2.97 fold | accumulation of CD14+/CD16+ cells vs FBS-only control (CD14+/CD16+ cells [3]; 10 μg/ml rOPN and FBS, 24 hours): no significant accumulation | increase in CD14+/CD16+ cells vs control (CD14+/CD16+ cells [3]; 10 μg/ml rOPN, 72 hours): 12 fold | CD14+/CD16+ cells vs control (CD14+/CD16+ cells [3]; 10 μg/ml rOPN, serum free medium): increase

B1: MCSF: growth factor MCSF (protein, UniProt P09603 33-554, looked up)
Macrophage colony-stimulating …: EEVSEYCSHMIGSGHLQSLQRLIDSQMETSCQITFEFVDQEQLKDPVCYLKKAFLLVQDIMEDTMRFRDNTPNAIAIVQLQELSLRLKSCFTKDYEEHDKACVRTFYETPLQLLEKVKNVFNETKNLLDKDWNIFSKNCNNSFAECSSQDVVTKPDCNCLYPKAIPSSDPASVSPHQPLAPSMAPVAGLTWEDSEGTEGSSLLPGEQPLHTVDPGSAKQRPPRSTCQSFEPPETPVVKDSTIGGSPQPRPSVGAFNPGMEDILDSAMGTNWVPEEASGEASEIPVPQGTELSPSRPGGGSMQTEPARPSNFLSASSPLPASAKGQQPADVTGTALPRVGPVRPTGQDWNHTPQKTDHPSALLRDPPEPGSPRISSLRPQGLSNPSTLSAQPQLSRSHSSGSVLPLGELEGRRSTRDRRSPAEPEGGPASEGAARPLPRFNSVPLTDTGHERQSEGSFSPQLQESVFHLLVPSVILVLLAVGGLLFYRWRRRSHQEPQRADSPLEQPEGSPLTQDDRQVELPV
OPN RNA expression (OPN RNA): no effect

From US9867794B2, “Regulation of osteopontin” (Pathologica LLC, priority 2007, dated 2018)
